Experimental data from patent US20170121687A1, “METHODS OF CELLULAR REPROGRAMMING” (Agency for Science, Technology and Research, priority 2014, published 2017).

B1: KGF: keratinocyte growth factor (protein, UniProt P21781 32-194, looked up)
Fibroblast growth factor 7: CNDMTPEQMATNVNCSSPERHTRSYDYMEGGDIRVRRLFCRTQWYLRIDKRGKVKGTQEMKNNYNIMEIRTVAVGIVAIKGVESEFYLAMNKEGKLYAKKECNEDCNFKELILENHYNTYASAKWTHNGGEMFVALNQKGIPVRGKKTKKEQKTAHFLPMAIT

Tested on: IMR90
Assay: Integrin ligation step with other extracellular matrices and growth factors after antibody induction
Type: cell-based, human
Conditions: FIG. 12-15
Procedure: Cells were detached using conventional cell culture techniques and 60000 suspended cells in 100 μL media were incubated with 2 μg of each of the following antibodies—Anti-Integrin alpha V [272-17E6] (Abcam, USA), Anti-Integrin alpha 5 [P1D6]—Azide free (Abcam, USA), Anti-Integrin beta 3 antibody [25E11], Anti-Integrin αV/β5 (P1F6) L (Santa Cruz Biotechnology, USA), Anti-Integrin αVβ6, clone 10D5 (Merck, USA)—for 30 minutes in a 37° C. incubator. Control antibody used was normal mouse IgG1 antibody (Santa Cruz Biotechnology, USA). The volume of the cell suspension was brought up to 250 μL for subsequent seeding in a 48-well tissue culture plate. Two days after antibody treatment, extracellular matrix was added into the media. Reprogramming of U251 cells followed a modified procedure, where a 3-antibody combination comprising Anti-Integrins αv, αvβ5 and αvβ6 was used. Two days after antibody treatment, the cells were transferred to ECM that had been pre-coated onto the culture wells. Extracellular matrices used are basement membrane matrix, Geltrex (Life Technologies, USA), laminin 332 and laminin 511 (Biolamina, Sweden). One day after addition of extracellular matrix, the media was changed to one of the following growth factors-supplemented media—1) SKP media made up of DMEM/F12 (Life Technologies, USA) supplemented with 1× B27 supplement (Life Technologies, USA), 40 ng/mL bFGF, 20 ng/mL EGF (Life Technologies, USA); 2) mTESR2 (Stemcell Technologies, USA).
Cells were lysed for RNA using TRIzol® Reagent (Invitrogen, USA) following manufacturer's instructions. Purified RNA was reverse transcribed into cDNA using iScript™ cDNA synthesis kit (Bio-Rad, USA). The reaction was carried out in a 20 μL volume containing 4 μL 5× iScript reaction mix, 1 μL iScript reverse transcriptase, RNA template (≦1000 ng total RNA) and nuclease free water (variable). The complete reaction mix was incubated for at 5 minutes at 25° C., 30 minutes at 42° C., 5 minutes at 85° C. followed by holding at 4° C. (optional).
Reaction was performed on iQ5 multi-colour real-time PCR detection system (Bio-Rad, USA) using the iTaq™ Universal SYBR® Green supermix (Bio-Rad, USA). The 20 μL volume reaction component includes 10 μL iTaq™ Universal SYBR® Green supermix, 1 μL of primer mix (5 μM forward primer, 5 μM reverse primer), 1 to 100 ng template and nuclease free water (variable).
The reaction conditions were as follows: 30 sec at 95° C., followed by 40 cycles of 15 sec at 95° C. and 30 sec at 60° C. […] Relative quantization of target mRNA expression, normalized to an endogenous control and relative to a calibrator, was calculated using the mathematical expression for fold change 2-ΔΔCt (fold change).

| Molecule | expression of MET and stemness markers |
| --- | --- |
| HGF: hepatocyte growth factor | reduced expression of both MET and stemness markers |
| Laminin 511: extracellular matrix (Biolamina, Sweden) used during the integrin ligation step | positively influenced |
| Laminin 521: extracellular matrix used during the integrin ligation step | positively influenced |
| B1 | did not appear to significantly affect |
